# Measured values reported in publication PMC10975593 (ACS Omega, 2024).
# Where two headings read alike, the source gives them in different places.
# Experiments:
# [1] = target: PIK3CD/PIK3R1 (p110 δ/p85 α) (Homo sapiens, UniProt O00329); assay: Kinase selectivity for OMS14; format: biochemical
# [2] = target: PKN2 (PRK2) (Homo sapiens, UniProt Q16513); assay: Kinase selectivity for OMS14; format: biochemical
# [3] = read-out: % of inhibition (mean)
# [4] = read-out: % of inhibition, point 1
# [5] = read-out: % of inhibition, point 2
# Sequence of PIK3CD/PIK3R1 (p110 δ/p85 α) (O00329 whole entry): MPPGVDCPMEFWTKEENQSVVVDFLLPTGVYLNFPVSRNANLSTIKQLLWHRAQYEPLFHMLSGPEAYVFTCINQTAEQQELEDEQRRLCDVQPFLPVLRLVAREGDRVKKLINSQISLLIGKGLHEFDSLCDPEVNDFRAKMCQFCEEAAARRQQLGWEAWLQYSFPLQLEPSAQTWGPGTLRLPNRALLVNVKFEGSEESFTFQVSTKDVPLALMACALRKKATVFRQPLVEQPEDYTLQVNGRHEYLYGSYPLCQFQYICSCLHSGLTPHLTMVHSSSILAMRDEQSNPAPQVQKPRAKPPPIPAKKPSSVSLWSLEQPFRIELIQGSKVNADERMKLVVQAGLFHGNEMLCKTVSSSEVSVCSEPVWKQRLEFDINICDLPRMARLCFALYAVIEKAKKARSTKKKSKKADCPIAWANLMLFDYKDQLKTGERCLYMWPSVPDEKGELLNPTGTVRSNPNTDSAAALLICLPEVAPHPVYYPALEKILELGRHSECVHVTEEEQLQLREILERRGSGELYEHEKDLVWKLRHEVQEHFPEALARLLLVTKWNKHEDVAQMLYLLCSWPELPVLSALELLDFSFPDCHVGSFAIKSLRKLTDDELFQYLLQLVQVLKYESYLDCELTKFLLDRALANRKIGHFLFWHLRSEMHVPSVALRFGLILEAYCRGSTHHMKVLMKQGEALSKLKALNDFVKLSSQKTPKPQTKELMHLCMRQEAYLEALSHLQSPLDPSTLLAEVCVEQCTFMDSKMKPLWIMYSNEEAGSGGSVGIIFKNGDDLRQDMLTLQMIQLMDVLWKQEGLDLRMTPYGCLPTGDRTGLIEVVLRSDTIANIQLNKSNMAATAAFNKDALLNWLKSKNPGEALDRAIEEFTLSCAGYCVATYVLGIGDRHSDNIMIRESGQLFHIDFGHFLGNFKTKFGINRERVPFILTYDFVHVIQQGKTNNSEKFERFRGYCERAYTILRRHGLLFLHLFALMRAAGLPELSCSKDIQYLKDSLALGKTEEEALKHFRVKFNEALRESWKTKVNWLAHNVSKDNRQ
# Sequence of PIK3CD/PIK3R1 (p110 δ/p85 α) (P27986 whole entry partner): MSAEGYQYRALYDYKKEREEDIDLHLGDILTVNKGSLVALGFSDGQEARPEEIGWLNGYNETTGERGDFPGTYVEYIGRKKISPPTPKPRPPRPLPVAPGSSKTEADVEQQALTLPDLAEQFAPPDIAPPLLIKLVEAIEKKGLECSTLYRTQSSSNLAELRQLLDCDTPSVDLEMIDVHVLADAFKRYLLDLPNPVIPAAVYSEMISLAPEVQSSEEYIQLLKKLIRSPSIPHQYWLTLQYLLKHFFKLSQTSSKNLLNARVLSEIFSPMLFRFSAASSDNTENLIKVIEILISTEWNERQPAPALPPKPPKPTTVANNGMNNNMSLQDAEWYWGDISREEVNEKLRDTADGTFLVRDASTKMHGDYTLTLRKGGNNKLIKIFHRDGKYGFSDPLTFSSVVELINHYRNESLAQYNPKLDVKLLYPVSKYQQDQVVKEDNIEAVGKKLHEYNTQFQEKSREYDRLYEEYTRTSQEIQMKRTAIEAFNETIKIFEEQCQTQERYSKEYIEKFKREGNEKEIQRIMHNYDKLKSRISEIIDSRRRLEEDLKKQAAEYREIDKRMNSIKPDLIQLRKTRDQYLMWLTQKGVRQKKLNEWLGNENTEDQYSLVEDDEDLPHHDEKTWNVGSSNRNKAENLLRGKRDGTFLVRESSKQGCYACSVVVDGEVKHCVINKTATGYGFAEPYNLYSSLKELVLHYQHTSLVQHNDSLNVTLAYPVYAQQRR
# Sequence of PKN2 (PRK2) (Q16513 whole entry): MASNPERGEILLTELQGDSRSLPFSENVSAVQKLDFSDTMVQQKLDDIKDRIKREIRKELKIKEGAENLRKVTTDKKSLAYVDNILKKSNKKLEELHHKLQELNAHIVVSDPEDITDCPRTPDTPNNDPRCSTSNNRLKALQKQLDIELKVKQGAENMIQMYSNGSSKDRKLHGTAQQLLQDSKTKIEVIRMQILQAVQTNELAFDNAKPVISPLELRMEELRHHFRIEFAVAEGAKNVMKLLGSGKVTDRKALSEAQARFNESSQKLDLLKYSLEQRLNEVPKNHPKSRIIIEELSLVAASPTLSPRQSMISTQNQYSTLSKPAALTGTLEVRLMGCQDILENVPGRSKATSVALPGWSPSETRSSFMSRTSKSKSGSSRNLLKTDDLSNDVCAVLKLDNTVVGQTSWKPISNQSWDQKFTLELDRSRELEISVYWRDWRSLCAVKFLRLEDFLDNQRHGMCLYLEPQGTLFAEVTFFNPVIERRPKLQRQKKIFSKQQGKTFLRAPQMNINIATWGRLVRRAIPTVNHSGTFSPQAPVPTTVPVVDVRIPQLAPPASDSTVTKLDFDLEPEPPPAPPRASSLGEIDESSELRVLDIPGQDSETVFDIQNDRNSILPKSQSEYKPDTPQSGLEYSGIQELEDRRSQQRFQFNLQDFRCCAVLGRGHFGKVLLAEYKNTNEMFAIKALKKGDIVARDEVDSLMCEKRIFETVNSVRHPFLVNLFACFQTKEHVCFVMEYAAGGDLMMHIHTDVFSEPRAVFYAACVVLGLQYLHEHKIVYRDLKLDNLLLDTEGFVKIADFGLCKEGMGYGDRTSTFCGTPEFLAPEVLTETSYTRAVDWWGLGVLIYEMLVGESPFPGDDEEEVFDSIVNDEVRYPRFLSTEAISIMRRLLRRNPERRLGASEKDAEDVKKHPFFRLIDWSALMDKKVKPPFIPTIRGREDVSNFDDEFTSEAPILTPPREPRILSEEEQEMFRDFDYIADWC
compound,measurement,setting,value
"O=C(CN1CCN(CC(=O)Nc2nc3ccccc3s2)CC1)Nc1ccc([N+](=O)[O-])cc1 [OMS14, N-(benzo[d]thiazol-2-yl)-2-(4-(2-((4-nitrophenyl)amino)-2-oxoethyl)piperazin-1-yl)acetamide]",inhibition at 100 µM,[1]; [3],65%
same,inhibition at 100 µM,[1]; [4],66%
same,inhibition at 100 µM,[1]; [5],64%
same,inhibition at 100 µM,[2]; [3],10%
same,inhibition at 100 µM,[2]; [4],11%
same,inhibition at 100 µM,[2]; [5],8%
